The nature of experiment [1]: In vitro therapeutic index was measured from IC50 to EC50 towards HIV-1 replication in cell growth in H9 lymphocytes. Format: functional.
Experiment [2] has as its system H9. Nature of the experiment: Concentration that inhibits HIV-1 replication in cell growth in H9 lymphocytes. It is filed as functional, cell-based. The conditions noted are these: Homo sapiens.

In experiment [1], `CC1(C)Oc2ccc3ccc(=O)oc3c2[C@@H](OC(=O)C23CCC(C)(C(=O)O2)C3(C)C)[C@H]1OC(=O)C12CCC(C)(C(=O)O1)C2(C)C` (stereo partly specified) yielded a TI of 136719.
In experiment [2], `Cc1cn([C@H]2C[C@H](N=[N+]=[N-])[C@@H](CO)O2)c(=O)[nH]c1=O` [ZIDOVUDINE] came in with an IC50 of 500 µM. In experiment [1], this compound gave a TI of 11200.
In experiment [2], `CC1(C)Oc2ccc3c(=O)ccoc3c2[C@@H](OC(=O)C23CCC(C)(C(=O)O2)C3(C)C)[C@H]1OC(=O)C12CCC(C)(C(=O)O1)C2(C)C` (stereo partly specified) registered a half-maximal effective concentration (EC50) of 0.000678 µM and an IC50 of 9.83 µM. In experiment [1], this compound had a TI of 14500.

The IC50 is the concentration that gives 50% inhibition. Low readings indicate inhibition by little substance, high ones a need for much substance. The EC50 is the concentration needed to bring the measured effect to its halfway point. A low value points to a more potent agent.

For the origin of these results see ChEMBL document CHEMBL1145744, “Anti-HIV agents. Part 55: 3'R,4'R-Di-(O)-(-)-camphanoyl-2',2'-dimethyldihydropyrano[2,3-f]chromone (DCP), a novel anti-HIV agent” (Bioorg Med Chem Lett, 2003).
